Source: US11571421B2, “GABAA positive allosteric modulator compounds for treatment of itch and/or dermatitis” (NeuroCycle Therapeutics, Inc., priority 2018, dated 2023)
Several values for one entry are separate records, joined by “and”; a condition that tells them apart may be missing. Identical values can stand only once.

Tested on: Chloroquine (CQ)-Induced Itch Model in Male C57BL/6 Mice
Test: Chloroquine Induced Itch Model, AZD7325 (Example 2)
Type: in vivo
Experimental: Other GABAA positive allosteric modulators are predicted to have similar effects on pruritic conditions and dermatitis as PF-06372865. […] In this study, the efficacy of AZD7325 was evaluated in the Chloroquine Induced Itch Model in Male C57BL/6 Mice. […]
AZD7325 was weighed into a clean glass container. A 5% 2-hydroxypropyl-β-cyclodextrin was added and the resulting mixture was mixed well using mild vortexing and sonicated for 15-20 minutes to provide a homogeneous suspension.
21 mg of chloroquine phosphate was weighed in a clean glass container. 5.2 mL PBS was added, and the resulting mixture was mixed well using mild vortexing to form the desired strength solution.
The right-side cheek area of all the animals was shaved with animal clippers 1 day prior to the experiment. Animals were randomized into different treatment groups based on body weight to avoid variability in weights across groups one day prior to experiment. Reference formulations and chloroquine phosphate solution were prepared on the day of the experiment.
Animals were dosed per oral with respective treatment group using a dose volume of 10 ml/kg. Times of dosing were recorded. Immediately after compound treatment, animals were kept in a empty transparent chamber (23 cm length×17 cm width) for acclimatization and observation.
Ninety (90) minutes post compound dosing, 50-μl of chloroquine phosphate solution (a 200-μg dose) was injected intracutaneously into the animal's right cheek. Animals were returned to the same chamber for observation. Animals were observed by an observer blind to the treatment group for a period of 30 minutes post chloroquine injection. Total number of bouts of scratching directed at the ipsilateral cheek were recorded for 30 minutes.

[1] = 0.3 mg/kg PO, individual animals
[2] = 10 mg/kg PO, individual animals
[3] = 30 mg/kg PO, individual animals

CCCNC(=O)c1nnc2c(-c3c(F)cccc3OC)cccc2c1N [AZD7325]
Scratching bouts (Nos.) In 30 min, 0-5 min (0.3 mg/kg PO, MEAN, N=6): 1.17 Nos.
Scratching bouts (Nos.) In 30 min, 5-10 min (0.3 mg/kg PO, MEAN, N=6): 11.00 Nos.
Scratching bouts (Nos.) In 30 min, 10-15 min (0.3 mg/kg PO, MEAN, N=6): 17.17 Nos.
Scratching bouts (Nos.) In 30 min, 15-20 min (0.3 mg/kg PO, MEAN, N=6): 24.00 Nos.
Scratching bouts (Nos.) In 30 min, 20-25min (0.3 mg/kg PO, MEAN, N=6): 16.83 Nos.
Scratching bouts (Nos.) In 30 min, 25-30 min (0.3 mg/kg PO, MEAN, N=6): 24.00 Nos.
Total Scratching bouts (0.3 mg/kg PO, MEAN, N=6): 94.17 (Nos.)/30 min
Scratching bouts (Nos.) In 30 min, 0-5 min [1]: 0 Nos. (4×) and 5 Nos. and 2 Nos.
Scratching bouts (Nos.) In 30 min, 5-10 min [1]: 17 Nos. and 0 Nos. (2×) and 9 Nos. and 24 Nos. and 16 Nos.
Scratching bouts (Nos.) In 30 min, 10-15 min [1]: 22 Nos. and 25 Nos. and 10 Nos. and 15 Nos. and 1 Nos. and 30 Nos.
Scratching bouts (Nos.) In 30 min, 15-20 min [1]: 45 Nos. and 30 Nos. and 0 Nos. and 14 Nos. and 28 Nos. and 27 Nos.
Scratching bouts (Nos.) In 30 min, 20-25min [1]: 11 Nos. and 28 Nos. and 18 Nos. and 29 Nos. and 15 Nos. and 0 Nos.
Scratching bouts (Nos.) In 30 min, 25-30 min [1]: 21 Nos. and 15 Nos. (2×) and 31 Nos. and 23 Nos. and 39 Nos.
Total Scratching bouts [1]: 116 (Nos.)/30 min and 98 (Nos.)/30 min and 73 (Nos.)/30 min and 105 (Nos.)/30 min and 61 (Nos.)/30 min and 112 (Nos.)/30 min
Scratching bouts (Nos.) In 30 min, 0-5 min (1 mg/kg PO, MEAN, N=6): 2.00 Nos.
Scratching bouts (Nos.) In 30 min, 5-10 min (1 mg/kg PO, MEAN, N=6): 10.33 Nos.
Scratching bouts (Nos.) In 30 min, 10-15 min (1 mg/kg PO, MEAN, N=6): 15.67 Nos.
Scratching bouts (Nos.) In 30 min, 15-20 min (1 mg/kg PO, MEAN, N=6): 22.33 Nos.
Scratching bouts (Nos.) In 30 min, 20-25min (1 mg/kg PO, MEAN, N=6): 19.17 Nos.
Scratching bouts (Nos.) In 30 min, 25-30 min (1 mg/kg PO, MEAN, N=6): 14.33 Nos.
Total Scratching bouts (1 mg/kg PO, MEAN, N=6): 83.83 (Nos.)/30 min
Scratching bouts (Nos.) In 30 min, 0-5 min (1 mg/kg PO, individual animals): 0 Nos. (2×) and 2 Nos. and 3 Nos. and 6 Nos. and 1 Nos.
Scratching bouts (Nos.) In 30 min, 5-10 min (1 mg/kg PO, individual animals): 1 Nos. and 7 Nos. and 18 Nos. and 36 Nos. and 0 Nos. (2×)
Scratching bouts (Nos.) In 30 min, 10-15 min (1 mg/kg PO, individual animals): 0 Nos. and 15 Nos. and 26 Nos. and 8 Nos. and 21 Nos. and 24 Nos.
Scratching bouts (Nos.) In 30 min, 15-20 min (1 mg/kg PO, individual animals): 30 Nos. and 24 Nos. and 14 Nos. and 7 Nos. and 44 Nos. and 15 Nos.
Scratching bouts (Nos.) In 30 min, 20-25min (1 mg/kg PO, individual animals): 48 Nos. and 38 Nos. and 7 Nos. and 10 Nos. and 12 Nos. and 0 Nos.
Scratching bouts (Nos.) In 30 min, 25-30 min (1 mg/kg PO, individual animals): 0 Nos. and 9 Nos. and 17 Nos. and 4 Nos. and 30 Nos. and 26 Nos.
Total Scratching bouts (1 mg/kg PO, individual animals): 79 (Nos.)/30 min and 95 (Nos.)/30 min and 85 (Nos.)/30 min and 65 (Nos.)/30 min and 113 (Nos.)/30 min and 66 (Nos.)/30 min
Scratching bouts (Nos.) In 30 min, 0-5 min (3 mg/kg PO, MEAN, N=6): 1.50 Nos.
Scratching bouts (Nos.) In 30 min, 5-10 min (3 mg/kg PO, MEAN, N=6): 7.50 Nos.
Scratching bouts (Nos.) In 30 min, 10-15 min (3 mg/kg PO, MEAN, N=6): 16.33 Nos.
Scratching bouts (Nos.) In 30 min, 15-20 min (3 mg/kg PO, MEAN, N=6): 17.17 Nos.
Scratching bouts (Nos.) In 30 min, 20-25min (3 mg/kg PO, MEAN, N=6): 13.33 Nos.
Scratching bouts (Nos.) In 30 min, 25-30 min (3 mg/kg PO, MEAN, N=6): 11.33 Nos.
Total Scratching bouts (3 mg/kg PO, MEAN, N=6): 67.17 (Nos.)/30 min
Scratching bouts (Nos.) In 30 min, 0-5 min (3 mg/kg PO, individual animals): 3 Nos. and 0 Nos. (4×) and 6 Nos.
Scratching bouts (Nos.) In 30 min, 5-10 min (3 mg/kg PO, individual animals): 0 Nos. (3×) and 31 Nos. and 12 Nos. and 2 Nos.
Scratching bouts (Nos.) In 30 min, 10-15 min (3 mg/kg PO, individual animals): 20 Nos. and 22 Nos. and 17 Nos. and 9 Nos. and 14 Nos. and 16 Nos.
Scratching bouts (Nos.) In 30 min, 15-20 min (3 mg/kg PO, individual animals): 18 Nos. and 5 Nos. and 35 Nos. and 26 Nos. and 19 Nos. and 0 Nos.
Scratching bouts (Nos.) In 30 min, 20-25min (3 mg/kg PO, individual animals): 2 Nos. and 32 Nos. and 22 Nos. and 6 Nos. and 10 Nos. and 8 Nos.
Scratching bouts (Nos.) In 30 min, 25-30 min (3 mg/kg PO, individual animals): 8 Nos. (2×) and 19 Nos. and 11 Nos. and 20 Nos. and 2 Nos.
Total Scratching bouts (3 mg/kg PO, individual animals): 51 (Nos.)/30 min and 78 (Nos.)/30 min and 119 (Nos.)/30 min and 64 (Nos.)/30 min and 63 (Nos.)/30 min and 28 (Nos.)/30 min
Scratching bouts (Nos.) In 30 min, 0-5 min (10 mg/kg PO, MEAN, N=6): 0.50 Nos.
Scratching bouts (Nos.) In 30 min, 5-10 min (10 mg/kg PO, MEAN, N=6): 6.17 Nos.
Scratching bouts (Nos.) In 30 min, 10-15 min (10 mg/kg PO, MEAN, N=6): 15.17 Nos.
Scratching bouts (Nos.) In 30 min, 15-20 min (10 mg/kg PO, MEAN, N=6): 12.50 Nos.
Scratching bouts (Nos.) In 30 min, 20-25min (10 mg/kg PO, MEAN, N=6): 13.67 Nos.
Scratching bouts (Nos.) In 30 min, 25-30 min (10 mg/kg PO, MEAN, N=6): 15.17 Nos.
Total Scratching bouts (10 mg/kg PO, MEAN, N=6): 63.17 (Nos.)/30 min
Scratching bouts (Nos.) In 30 min, 0-5 min [2]: 0 Nos. (4×) and 1 Nos. and 2 Nos.
Scratching bouts (Nos.) In 30 min, 5-10 min [2]: 7 Nos. (2×) and 0 Nos. (2×) and 22 Nos. and 1 Nos.
Scratching bouts (Nos.) In 30 min, 10-15 min [2]: 41 Nos. and 11 Nos. and 7 Nos. and 19 Nos. and 0 Nos. and 13 Nos.
Scratching bouts (Nos.) In 30 min, 15-20 min [2]: 9 Nos. and 0 Nos. (2×) and 22 Nos. and 25 Nos. and 19 Nos.
Scratching bouts (Nos.) In 30 min, 20-25min [2]: 0 Nos. (2×) and 10 Nos. and 20 Nos. and 19 Nos. and 33 Nos.
Scratching bouts (Nos.) In 30 min, 25-30 min [2]: 23 Nos. and 37 Nos. and 24 Nos. and 0 Nos. (2×) and 7 Nos.
Total Scratching bouts [2]: 80 (Nos.)/30 min and 65 (Nos.)/30 min and 73 (Nos.)/30 min and 85 (Nos.)/30 min and 61 (Nos.)/30 min and 15 (Nos.)/30 min
Scratching bouts (Nos.) In 30 min, 0-5 min (30 mg/kg PO, MEAN, N=6): 5.17 Nos.
Scratching bouts (Nos.) In 30 min, 5-10 min (30 mg/kg PO, MEAN, N=6): 11.67 Nos.
Scratching bouts (Nos.) In 30 min, 10-15 min (30 mg/kg PO, MEAN, N=6): 7.17 Nos.
Scratching bouts (Nos.) In 30 min, 15-20 min (30 mg/kg PO, MEAN, N=6): 18.33 Nos.
Scratching bouts (Nos.) In 30 min, 20-25min (30 mg/kg PO, MEAN, N=6): 6.17 Nos.
Scratching bouts (Nos.) In 30 min, 25-30 min (30 mg/kg PO, MEAN, N=6): 2.83 Nos.
Total Scratching bouts (30 mg/kg PO, MEAN, N=6): 51.33 (Nos.)/30 min
Scratching bouts (Nos.) In 30 min, 0-5 min [3]: 0 Nos. (3×) and 1 Nos. and 20 Nos. and 10 Nos.
Scratching bouts (Nos.) In 30 min, 5-10 min [3]: 9 Nos. and 15 Nos. and 0 Nos. (2×) and 1 Nos. and 45 Nos.
Scratching bouts (Nos.) In 30 min, 10-15 min [3]: 8 Nos. and 1 Nos. and 22 Nos. and 3 Nos. and 9 Nos. and 0 Nos.
Scratching bouts (Nos.) In 30 min, 15-20 min [3]: 29 Nos. and 0 Nos. and 11 Nos. and 10 Nos. and 47 Nos. and 13 Nos.
Scratching bouts (Nos.) In 30 min, 20-25min [3]: 5 Nos. and 0 Nos. (3×) and 16 Nos. (2×)
Scratching bouts (Nos.) In 30 min, 25-30 min [3]: 0 Nos. (4×) and 12 Nos. and 5 Nos.
Total Scratching bouts [3]: 51 (Nos.)/30 min and 29 (Nos.)/30 min and 69 (Nos.)/30 min and 18 (Nos.)/30 min and 57 (Nos.)/30 min and 84 (Nos.)/30 min
scratching bouts compared to vehicle treatment, significance (at 1, 3, 10 and 30 mg/kg doses): Statistically significant decrease
total number of scratching bouts, dose response (quantified for 30 minutes post CQ injection, 0.3-30 mg/kg PO): dose dependent decrease
